Target: PRMT5/MEP50 protein complex (Homo sapiens (Human), UniProt O14744)
Test: PRMT5 biochemical assay (3H-SAM methylation of H4(1-21) peptide, filter plate scintillation counting)
Details: PRMT5 enzyme inhibition; 10 nM PRMT5/MEP50 complex, 200 nM H4(1-21) peptide, 1 uM SAM, 25 minute incubation at room temperature
Protocol: Following dilution, 1 ul was added to an empty 96-well microtiter plate. PRMT5/MEP50 protein complex was combined with H4(1-21) peptide ([…]) in PRMT5 assay buffer (50 mM Tris pH 8.5, 50 mM NaCl, 5 mM MgCl2, 1 mM EDTA, 1 mM TCEP) and 44 ul was added to the microtiter plate containing compound. S-Adenosyl-L-methionine (SAM) was prepared by combining ^3H labelled SAM with unlabelled SAM in PRMT5 assay buffer such that the final SAM concentration was 10 uM and the specific activity was 0.2 uCi/ul. The reaction was initiated by adding 5 ul of SAM stock to the microtiter plate. The final reaction conditions were 10 nM PRMT5/MEP50 complex, 200 nM peptide and 1 uM SAM. Following a 25 minute incubation at room temperature, the reaction was stopped with the addition of 100 uL of 20% TCA. The 3H-peptide product was captured using a 96-well filter plate (MSIPN4B, Millipore) and washed 5 times with PBS buffer. Scintillation fluid (100 ul) was added to the dried filter plate and counted in a liquid scintillation counter. IC50 values were determined by fitting the data to the standard 4-parameter dose response equation using Pfizer proprietary software.
In the final construct PRMT5 ORF was under control of polyhedrin promoter (polH) while MEP50 ORF was under control of p10 promoter.
Viruses were generated using standard Bac-to-Bac viral generation protocols (Life Technologies) and amplified to high-titer passage two (P2) stocks. Protein over expression was conducted in exponentially growing Sf21 cells infected at 2×106 with P2 viral stock at MOI=1 of PRMT5-Mep50 dual construct virus and Mep50 construct virus at 1:1 ratio. The co-expression protocol was used to supplement additional Mep50 for FlagPRMT5-Mep50 heterodimer formation. Cells were harvested at 72 h post infection by centrifugation and frozen pellet was stored at −80° C.
FlagPRMT5-Mep50 complex was purified from cell lysate using Flag affinity chromatography. Cell were lyzed in 50 mM Tris 7.5, 200 mM NaCl, 10% glycerol, 0.25 mM TCEP supplemented with EDTA-free protease inhibitor cocktail (Roche). 1.5 ml of lysis buffer was added per 1 g of frozen pellet. The clarified lysate was obtained by centrifugation of cell lysate at 10,000 g for 1 h at 4 C. 5 ml of Anti-FLAG M2 Agarose (Sigma) […] was added to the clarified lysate to isolate FlagPRMT5-Mep50. Following batch binding for 3 h at 4 C, Flag resin bound to FlagPRMT5-Mep50 washed with 20 column volumes (CV) of 50 mM Tris 7.5, 200 mM NaCl, 10% glycerol, 0.25 mM TCEP followed by elution of FlagPRMT5-Mep50 complex using 3 CV of 50 mM Tris 7.5, 200 mM NaCl, 10% glycerol, 0.25 mM TCEP supplemented with 200 ug/ml of FLAG Peptide ([…]). […] Peak fractions containing FlagPRMT5-Mep50 complex were concentrated to 1.6 mg/ml, flash frozen in small aliquots using liquid nitrogen and stored at −80° C.

Chain of PRMT5/MEP50 protein complex (O14744 other isoform, or with tags, fused parts or gaps): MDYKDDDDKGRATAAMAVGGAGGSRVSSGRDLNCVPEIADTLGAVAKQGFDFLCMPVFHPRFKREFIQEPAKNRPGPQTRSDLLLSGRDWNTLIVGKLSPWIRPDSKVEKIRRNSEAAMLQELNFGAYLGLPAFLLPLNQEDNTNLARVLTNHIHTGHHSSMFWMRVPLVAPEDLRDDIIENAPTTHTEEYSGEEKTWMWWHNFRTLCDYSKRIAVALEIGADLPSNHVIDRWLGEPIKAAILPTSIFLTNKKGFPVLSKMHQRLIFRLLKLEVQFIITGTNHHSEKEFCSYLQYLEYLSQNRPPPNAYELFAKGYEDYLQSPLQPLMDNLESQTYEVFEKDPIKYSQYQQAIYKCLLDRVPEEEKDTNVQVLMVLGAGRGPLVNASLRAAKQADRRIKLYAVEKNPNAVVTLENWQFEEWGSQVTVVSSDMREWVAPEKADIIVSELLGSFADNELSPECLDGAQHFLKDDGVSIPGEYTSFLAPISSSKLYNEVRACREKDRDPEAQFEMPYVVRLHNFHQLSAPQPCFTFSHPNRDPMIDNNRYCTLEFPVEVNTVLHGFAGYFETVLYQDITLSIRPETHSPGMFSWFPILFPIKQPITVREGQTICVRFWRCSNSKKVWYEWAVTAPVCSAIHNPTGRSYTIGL
Chain of PRMT5/MEP50 protein complex (Q9BQA1 whole entry partner): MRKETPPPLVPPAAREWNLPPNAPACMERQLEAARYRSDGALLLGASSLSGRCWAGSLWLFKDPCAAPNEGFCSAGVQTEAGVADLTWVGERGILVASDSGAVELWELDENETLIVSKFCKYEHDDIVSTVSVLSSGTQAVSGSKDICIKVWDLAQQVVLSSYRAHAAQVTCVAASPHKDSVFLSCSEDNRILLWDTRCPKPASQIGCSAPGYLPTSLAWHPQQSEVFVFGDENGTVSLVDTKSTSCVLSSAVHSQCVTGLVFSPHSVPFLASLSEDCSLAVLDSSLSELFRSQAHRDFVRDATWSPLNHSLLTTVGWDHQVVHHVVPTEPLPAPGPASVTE

SMILES | IC50 [nM]
C[C@@](O)(c1ccc(F)c(F)c1)[C@H]1O[C@@H](n2ccc3c(N)ncnc32)[C@H](O)[C@@H]1O [Example 103, (2R,3R,4S,5S)-2-(4-amino-7H-pyrrolo[2,3-d]pyrimidin-7-yl)-5-((R)-1-(3,4-difluorophenyl)-1-hydroxyethyl)tetrahydrofuran-3,4-diol] | 2
Cc1ncnc2c1ccn2[C@@H]1O[C@H]([C@H](O)c2ccnc(N(C)C)c2)[C@@H](O)[C@H]1O [Example 14, (2R,3S,4R,5R)-2-((R)-(2-(dimethylamino)pyridin-4-yl)(hydroxy)methyl)-5-(4-methyl-7H-pyrrolo[2,3-d]pyrimidin-7-yl)tetrahydrofuran-3,4-diol] | 17
O[C@@H]1[C@H](O)[C@@H]([C@H](O)c2ccc(F)c(F)c2)O[C@H]1n1ccc2c(CF)ncnc21 [Example 107, (2R,3S,4R,5R)-2-((R)-(3,4-difluorophenyl)(hydroxy)methyl)-5-(4-(fluoromethyl)-7H-pyrrolo[2,3-d]pyrimidin-7-yl)tetrahydrofuran-3,4-diol] | 7
CC[C@@H](O)[C@H]1O[C@@H](n2cnc3c(N)ncnc32)[C@H](O)[C@@H]1O [Example 3, (2R,3R,4S,5R)-2-(6-amino-9H-purin-9-yl)-5-((R)-1-hydroxypropyl)tetrahydrofuran-3,4-diol] | 333
Cc1ncnc2c1ccn2[C@@H]1O[C@H]([C@H](O)Cc2ccccc2)[C@@H](O)[C@H]1O [Example 28, (2R,3S,4R,5R)-2-((R)-1-hydroxy-2-phenylethyl)-5-(4-methyl-7H-pyrrolo[2,3-d]pyrimidin-7-yl)tetrahydrofuran-3,4-diol] | 11200
O[C@@H]1[C@H](O)[C@@H]([C@H](O)c2ccc(F)cc2)O[C@H]1n1ccc2c(C(F)F)ncnc21 [Example 96, (2R,3R,4S,5R)-2-(4-(difluoromethyl)-7H-pyrrolo[2,3-d]pyrimidin-7-yl)-5-((R)-(4-fluorophenyl)(hydroxy)methyl)tetrahydrofuran-3,4-diol] | 51
Nc1ncnc2c([C@@H]3O[C@H]([C@H](O)c4ccc(F)cc4)[C@@H](O)[C@H]3O)scc12 [Example 102, (2R,3R,4S,5R)-2-(4-aminothieno[3,4-d]pyrimidin-7-yl)-5-((R)-(4-fluorophenyl)(hydroxy)methyl)tetrahydrofuran-3,4-diol] | 304
Cc1ncnc2c1ccn2[C@@H]1O[C@@H](C(C)(C)O)[C@@H](O)[C@H]1O [Example 90, (2R,3S,4R,5R)-2-(2-hydroxypropan-2-yl)-5-(4-methyl-7H-pyrrolo[2,3-d]pyrimidin-7-yl)tetrahydrofuran-3,4-diol] | 3240
Cc1ncnc2c1ccn2[C@@H]1O[C@H]([C@@H](O)C2CCC2)[C@@H](O)[C@H]1O [Example 53, (2R,3S,4R,5R)-2-((S)-cyclobutyl(hydroxy)methyl)-5-(4-methyl-7H-pyrrolo[2,3-d]pyrimidin-7-yl)tetrahydrofuran-3,4-diol] | 9230
Nc1ncnc2c([C@@H]3O[C@H]([C@H](O)c4ccc(F)cc4)[C@@H](O)[C@H]3O)coc12 [Example 80, (2S,3R,4S,5R)-2-(4-aminofuro[3,2-d]pyrimidin-7-yl)-5-((R)-(4-fluorophenyl)(hydroxy)methyl)tetrahydrofuran-3,4-diol] | 32
Cc1ncnc2c1ccn2[C@@H]1O[C@H](Cn2cccn2)[C@@H](O)[C@H]1O [Example 58, (2R,3S,4R,5R)-2-((1H-pyrazol-1-yl)methyl)-5-(4-methyl-7H-pyrrolo[2,3-d]pyrimidin-7-yl)tetrahydrofuran-3,4-diol] | 1980

Results, then the compound that gave them:

IC50 [nM] | SMILES
65 | Cc1ncnc2c1ccn2[C@@H]1O[C@H]([C@H](O)c2cccc(S(C)(=O)=O)c2)[C@@H](O)[C@H]1O [Example 19, (2R,3S,4R,5R)-2-((R)-hydroxy(3-(methylsulfonyl)phenyl)methyl)-5-(4-methyl-7H-pyrrolo[2,3-d]pyrimidin-7-yl)tetrahydrofuran-3,4-diol]
663 | Cc1ncnc2c1ccn2[C@@H]1O[C@H]([C@H](O)C2CCCC2)[C@@H](O)[C@H]1O [Example 42, (2R,3S,4R,5R)-2-((R)-cyclopentyl(hydroxy)methyl)-5-(4-methyl-7H-pyrrolo[2,3-d]pyrimidin-7-yl)tetrahydrofuran-3,4-diol]
2270 | Cc1ncnc2c1ccn2[C@@H]1OC([C@H](O)c2cc(F)cc(C(F)(F)F)c2)[C@@H](O)[C@H]1O (stereo partly drawn) [Example 17, (3S,4R,5R)-2-((3-fluoro-5-(trifluoromethyl)phenyl)(hydroxy)methyl)-5-(4-methyl-7H-pyrrolo[2,3-d]pyrimidin-7-yl)tetrahydrofuran-3,4-diol]
30800 | Cc1ncnc2c1ccn2[C@@H]1O[C@H](C(O)CS(=O)(=O)c2ccccc2)[C@@H](O)[C@H]1O (stereo in doubt) [Example 24, (2S,3S,4R,5R)-2-((R)-1-hydroxy-2-(phenylsulfonyl)ethyl)-5-(4-methyl-7H-pyrrolo[2,3-d]pyrimidin-7-yl)tetrahydrofuran-3,4-diol]
1260 | Cc1ncnc2c1ccn2[C@@H]1O[C@H]([C@H](O)C2CCC2)[C@@H](O)[C@H]1O [Example 52, (2R,3S,4R,5R)-2-((R)-cyclobutyl(hydroxy)methyl)-5-(4-methyl-7H-pyrrolo[2,3-d]pyrimidin-7-yl)tetrahydrofuran-3,4-diol]
1990 | Cc1ncnc2c1ccn2[C@@H]1O[C@@H](c2ccccc2)[C@@H](O)[C@H]1O [Example 66, (2R,3R,4S,5S)-2-(4-methyl-7H-pyrrolo[2,3-d]pyrimidin-7-yl)-5-phenyltetrahydrofuran-3,4-diol]
24 | Cc1ncnc2c1ccn2[C@@H]1O[C@H]([C@H](O)c2ccco2)[C@@H](O)[C@H]1O [Example 54, (2S,3S,4R,5R)-2-((S)-furan-2-yl(hydroxy)methyl)-5-(4-methyl-7H-pyrrolo[2,3-d]pyrimidin-7-yl)tetrahydrofuran-3,4-diol]
3140 | Cc1ncnc2c1ccn2[C@@H]1O[C@@H]([C@H](O)c2ccccc2)[C@@H](O)[C@H]1O [Example 74, (2S,3S,4R,5R)-2-((R)-hydroxy(phenyl)methyl)-5-(4-methyl-7H-pyrrolo[2,3-d]pyrimidin-7-yl)tetrahydrofuran-3,4-diol]
200000 | Cc1ncnc2c1ccn2[C@@H]1O[C@H]([C@@H](O)Cc2ccccc2)[C@@H](O)[C@H]1O [Example 29, (2R,3S,4R,5R)-2-((S)-1-hydroxy-2-phenylethyl)-5-(4-methyl-7H-pyrrolo[2,3-d]pyrimidin-7-yl)tetrahydrofuran-3,4-diol]
37500 | Cc1ncnc2c1ccn2[C@@H]1O[C@H]([C@@H](O)C(C)C)[C@@H](O)[C@H]1O [Example 49, (2R,3S,4R,5R)-2-((S)-1-hydroxy-2-methylpropyl)-5-(4-methyl-7H-pyrrolo[2,3-d]pyrimidin-7-yl)tetrahydrofuran-3,4-diol]
74000 | Cc1ncnc2c1ccn2[C@@H]1O[C@H]([C@@H](O)C2CCCC2)[C@@H](O)[C@H]1O [Example 43, (2R,3S,4R,5R)-2-((S)-cyclopentyl(hydroxy)methyl)-5-(4-methyl-7H-pyrrolo[2,3-d]pyrimidin-7-yl)tetrahydrofuran-3,4-diol]
147 | C[C@](O)(c1ccc(F)c(F)c1)[C@H]1O[C@@H](n2ccc3c(N)ncnc32)[C@H](O)[C@@H]1O [Example 104, (2R,3R,4S,5S)-2-(4-amino-7H-pyrrolo[2,3-d]pyrimidin-7-yl)-5-((S)-1-(3,4-difluorophenyl)-1-hydroxyethyl)tetrahydrofuran-3,4-diol]
21700 | Cc1ncnc2c1ccn2[C@@H]1O[C@@H]([C@@H](O)c2ccc(F)cc2)[C@@H](O)[C@H]1O [Example 75, (2S,3S,4R,5R)-2-((S)-(4-fluorophenyl)(hydroxy)methyl)-5-(4-methyl-7H-pyrrolo[2,3-d]pyrimidin-7-yl)tetrahydrofuran-3,4-diol]
488 | Cc1nc(N)nc2c1ccn2[C@@H]1O[C@H]([C@@H](O)c2ccc(F)cc2)[C@@H](O)[C@H]1O [Example 65, (2R,3R,4S,5R)-2-(2-amino-4-methyl-7H-pyrrolo[2,3-d]pyrimidin-7-yl)-5-((S)-(4-fluorophenyl)(hydroxy)methyl)tetrahydrofuran-3,4-diol]

From patent US10428104B2, “Substituted nucleoside derivatives useful as anticancer agents” (Pfizer Inc., priority 2015, dated 2019)
